Drawing on paper PMC3776780, “Dual p38/JNK Mitogen Activated Protein Kinase Inhibitors Prevent Ozone-Induced Airway Hyperreactivity in Guinea Pigs” (PLoS ONE, 2013), this text covers Ki and IC50 for three compounds.

Where only a bound is given, the exact number is not on record here.

Holding throughout (test): spectrophotometric coupled-enzyme kinase inhibition assay
Holding throughout (format): biochemical

For one assay, the target named is KDR (Homo sapiens, UniProt P35968). The note with it: read-out: Ki or IC50 KDR. How it is done:
(§1) Affinity was measured using a kinase inhibition assay. Compounds were assayed for the inhibition of various kinases using a modification of a spectrophotometric coupled-enzyme assay. In this assay, a fixed concentration of activated kinase (10–40 nM) was incubated with various concentrations of a potential inhibitor dissolved in DMSO for 10 minutes at 30°C in a buffer containing 0.1 M HEPES, pH 7.5, containing 10 mM MgCl2, 2.5 mM phosphoenolpyruvate, 200 µM NADH, 2 mM DTT, 30 µg/mL pyruvate kinase, 10 µg/mL lactate dehydrogenase, and 200 µM–500 µM EGF receptor peptide. The EGF receptor peptide has the sequence […]. The reaction was initiated by the addition of ATP equal to the ATP Km of the kinase, and the assay plate is inserted into the spectrophotometer’s assay plate compartment that was maintained at 30°C. The decrease of absorbance at 340 nm was monitored as a function of time for 10 minutes. The rate data as a function of inhibitor concentration was either fit as an IC50 or to a competitive inhibition kinetic model to determine the compound Ki (see table 1).

In a further assay the target is T1, ZAP70 (Homo sapiens, UniProt P43403).
T1 sequence (P43403 1-619): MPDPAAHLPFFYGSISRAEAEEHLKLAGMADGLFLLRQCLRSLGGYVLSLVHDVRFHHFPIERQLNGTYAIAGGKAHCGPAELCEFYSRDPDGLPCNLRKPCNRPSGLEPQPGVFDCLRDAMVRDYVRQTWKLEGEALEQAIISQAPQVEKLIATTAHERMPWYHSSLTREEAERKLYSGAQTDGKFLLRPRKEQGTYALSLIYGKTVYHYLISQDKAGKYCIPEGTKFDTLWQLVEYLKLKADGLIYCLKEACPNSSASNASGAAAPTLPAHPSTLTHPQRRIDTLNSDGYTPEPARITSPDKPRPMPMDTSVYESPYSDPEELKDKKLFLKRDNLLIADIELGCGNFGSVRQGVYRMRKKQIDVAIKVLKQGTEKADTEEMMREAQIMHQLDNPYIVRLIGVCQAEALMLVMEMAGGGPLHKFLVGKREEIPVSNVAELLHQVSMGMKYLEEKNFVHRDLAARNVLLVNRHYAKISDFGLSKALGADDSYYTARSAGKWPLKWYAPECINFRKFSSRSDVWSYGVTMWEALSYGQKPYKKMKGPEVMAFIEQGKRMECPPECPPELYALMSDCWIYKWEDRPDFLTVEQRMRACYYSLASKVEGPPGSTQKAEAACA
The note with it: read-out: Ki or IC50 ZAP70. How it is done:
as §1

Another assay deals with AKT3 (Homo sapiens, UniProt Q9Y243). The note with it: read-out: Ki or IC50 AKT3. How it is done:
as §1

Another assay addresses PIM1 (Homo sapiens, UniProt P11309). The following applies: read-out: Ki or IC50 PIM1. Here is the method:
as §1

Another assay concerns the target CDK2 (Homo sapiens, UniProt P24941). The following applies: read-out: Ki or IC50 CDK2. How it is done:
as §1

In the next assay the target is MAPKAP2 (Homo sapiens, UniProt P49137). The following applies: read-out: Ki or IC50 MAPKAP2. How it is done:
as §1

Another assay addresses JNK3 (Homo sapiens, UniProt P53779). The following applies: ATP equal to Km, 30°C. Here is the method:
as §1

Another assay has as its target ERK2 (Homo sapiens, UniProt P28482). The following applies: read-out: Ki or IC50 ERK2. Here is the method:
as §1

A further assay concerns the target cMET (Homo sapiens, UniProt P08581). The note with it: read-out: Ki or IC50 cMET. How it is done:
as §1

The target of the next assay is PLK1 (Homo sapiens, UniProt P53350). The note with it: read-out: Ki or IC50 PLK1. Here is the method: as §1
The next assay concerns the target T2, MKK7 (Homo sapiens, UniProt O14733).
T2 sequence (O14733 1-419): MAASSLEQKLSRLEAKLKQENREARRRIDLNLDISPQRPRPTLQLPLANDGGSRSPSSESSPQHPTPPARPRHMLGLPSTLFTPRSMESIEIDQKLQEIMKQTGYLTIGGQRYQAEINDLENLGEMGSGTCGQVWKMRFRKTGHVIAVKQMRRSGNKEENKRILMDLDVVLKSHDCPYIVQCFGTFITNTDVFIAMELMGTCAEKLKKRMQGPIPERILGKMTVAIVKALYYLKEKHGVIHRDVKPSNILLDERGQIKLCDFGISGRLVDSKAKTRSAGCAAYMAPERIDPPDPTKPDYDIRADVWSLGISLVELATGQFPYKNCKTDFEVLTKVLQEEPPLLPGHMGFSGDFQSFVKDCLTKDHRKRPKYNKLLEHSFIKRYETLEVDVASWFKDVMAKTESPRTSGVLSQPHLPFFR
The following applies: read-out: Ki or IC50 MKK7. How it is done: as §1

Another assay concerns the target SRC (Homo sapiens, UniProt P12931). The following applies: read-out: Ki or IC50 SRC. How it is done:
as §1

The target in a further assay is p38 (Homo sapiens, UniProt Q16539). The note with it: ATP equal to Km, 30°C. How it is done:
as §1

For a further assay, the target named is T3, AurA (Homo sapiens, UniProt O14965).
T3 sequence (O14965 1-403): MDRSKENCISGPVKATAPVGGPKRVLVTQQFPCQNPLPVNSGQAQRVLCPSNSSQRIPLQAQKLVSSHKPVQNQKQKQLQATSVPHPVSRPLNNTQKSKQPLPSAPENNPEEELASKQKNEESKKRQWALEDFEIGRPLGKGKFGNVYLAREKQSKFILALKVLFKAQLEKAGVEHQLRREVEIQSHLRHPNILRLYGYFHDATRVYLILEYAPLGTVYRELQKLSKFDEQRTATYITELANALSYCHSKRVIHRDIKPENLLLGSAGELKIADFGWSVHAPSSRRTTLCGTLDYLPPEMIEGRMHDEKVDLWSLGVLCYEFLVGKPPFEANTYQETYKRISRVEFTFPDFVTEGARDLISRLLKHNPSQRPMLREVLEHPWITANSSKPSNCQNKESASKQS
The note with it: read-out: Ki or IC50 AurA. How it is done: as §1

A further assay deals with JNK2 (Homo sapiens, UniProt P45984). The following applies: ATP equal to Km, 30°C. How it is done:
as §1

Sequence of MAPKAP2 (P49137 whole entry): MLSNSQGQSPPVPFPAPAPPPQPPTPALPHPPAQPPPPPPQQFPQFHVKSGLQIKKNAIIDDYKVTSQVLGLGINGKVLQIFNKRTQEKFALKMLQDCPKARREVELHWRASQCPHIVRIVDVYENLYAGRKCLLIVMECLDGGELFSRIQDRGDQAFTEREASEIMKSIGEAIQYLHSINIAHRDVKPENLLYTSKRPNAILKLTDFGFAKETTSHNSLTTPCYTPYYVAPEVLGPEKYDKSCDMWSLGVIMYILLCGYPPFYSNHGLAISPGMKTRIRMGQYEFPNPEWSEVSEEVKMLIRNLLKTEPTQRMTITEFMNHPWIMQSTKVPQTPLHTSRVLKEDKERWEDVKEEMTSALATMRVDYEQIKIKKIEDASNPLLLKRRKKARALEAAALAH
Sequence of SRC (P12931 whole entry, species assumed): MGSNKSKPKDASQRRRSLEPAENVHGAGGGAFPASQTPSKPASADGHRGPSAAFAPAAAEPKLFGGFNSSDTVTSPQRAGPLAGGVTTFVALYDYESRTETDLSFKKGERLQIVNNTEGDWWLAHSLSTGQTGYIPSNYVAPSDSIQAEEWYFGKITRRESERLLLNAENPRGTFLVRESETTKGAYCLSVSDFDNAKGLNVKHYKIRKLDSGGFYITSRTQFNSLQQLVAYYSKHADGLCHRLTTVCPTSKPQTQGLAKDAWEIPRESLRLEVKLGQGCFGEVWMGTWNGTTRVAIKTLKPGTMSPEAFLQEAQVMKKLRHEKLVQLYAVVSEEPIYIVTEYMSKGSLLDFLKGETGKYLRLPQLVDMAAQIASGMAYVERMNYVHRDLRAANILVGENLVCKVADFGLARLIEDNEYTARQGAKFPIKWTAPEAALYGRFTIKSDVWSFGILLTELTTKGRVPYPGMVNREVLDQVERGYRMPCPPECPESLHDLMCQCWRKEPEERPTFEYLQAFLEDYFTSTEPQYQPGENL
Sequence of p38 (Q16539 whole entry): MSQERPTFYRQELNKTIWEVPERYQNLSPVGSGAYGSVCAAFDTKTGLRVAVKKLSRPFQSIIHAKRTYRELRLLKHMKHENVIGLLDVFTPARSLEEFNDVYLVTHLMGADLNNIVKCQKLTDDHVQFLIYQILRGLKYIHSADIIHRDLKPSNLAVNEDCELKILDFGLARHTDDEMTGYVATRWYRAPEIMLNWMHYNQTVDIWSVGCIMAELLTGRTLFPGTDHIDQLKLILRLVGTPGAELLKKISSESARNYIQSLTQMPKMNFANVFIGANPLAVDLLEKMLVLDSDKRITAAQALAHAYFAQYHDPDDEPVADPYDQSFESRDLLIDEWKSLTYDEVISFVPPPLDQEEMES
Sequence of PLK1 (P53350 whole entry, species assumed): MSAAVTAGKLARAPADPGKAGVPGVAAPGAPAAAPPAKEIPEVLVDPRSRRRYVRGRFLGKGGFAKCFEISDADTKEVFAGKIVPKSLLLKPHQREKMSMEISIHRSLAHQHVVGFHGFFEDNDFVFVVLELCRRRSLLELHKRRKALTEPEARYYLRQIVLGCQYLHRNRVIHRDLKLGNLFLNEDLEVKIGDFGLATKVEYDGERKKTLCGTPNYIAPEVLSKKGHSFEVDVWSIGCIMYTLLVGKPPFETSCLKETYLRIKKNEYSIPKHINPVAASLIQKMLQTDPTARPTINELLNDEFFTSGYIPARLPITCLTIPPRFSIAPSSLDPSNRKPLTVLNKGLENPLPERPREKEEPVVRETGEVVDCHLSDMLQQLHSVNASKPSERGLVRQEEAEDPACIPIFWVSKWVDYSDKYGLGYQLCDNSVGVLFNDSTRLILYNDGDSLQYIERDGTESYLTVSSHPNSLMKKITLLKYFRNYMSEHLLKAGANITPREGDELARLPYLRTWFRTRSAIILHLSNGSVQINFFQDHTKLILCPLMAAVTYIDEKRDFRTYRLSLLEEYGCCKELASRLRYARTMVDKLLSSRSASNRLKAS
Sequence of JNK2 (P45984 whole entry, species assumed): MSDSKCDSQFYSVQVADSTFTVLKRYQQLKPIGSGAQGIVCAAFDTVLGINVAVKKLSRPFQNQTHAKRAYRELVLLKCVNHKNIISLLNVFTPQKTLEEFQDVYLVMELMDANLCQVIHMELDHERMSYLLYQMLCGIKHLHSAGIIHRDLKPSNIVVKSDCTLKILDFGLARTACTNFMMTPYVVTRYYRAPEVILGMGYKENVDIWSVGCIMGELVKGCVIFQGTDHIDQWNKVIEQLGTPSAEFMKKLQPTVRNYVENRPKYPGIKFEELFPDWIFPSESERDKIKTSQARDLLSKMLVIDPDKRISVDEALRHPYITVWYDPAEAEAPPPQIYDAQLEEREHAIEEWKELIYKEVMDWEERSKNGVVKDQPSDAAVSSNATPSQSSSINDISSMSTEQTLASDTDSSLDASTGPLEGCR
Sequence of PIM1 (P11309 whole entry, species assumed): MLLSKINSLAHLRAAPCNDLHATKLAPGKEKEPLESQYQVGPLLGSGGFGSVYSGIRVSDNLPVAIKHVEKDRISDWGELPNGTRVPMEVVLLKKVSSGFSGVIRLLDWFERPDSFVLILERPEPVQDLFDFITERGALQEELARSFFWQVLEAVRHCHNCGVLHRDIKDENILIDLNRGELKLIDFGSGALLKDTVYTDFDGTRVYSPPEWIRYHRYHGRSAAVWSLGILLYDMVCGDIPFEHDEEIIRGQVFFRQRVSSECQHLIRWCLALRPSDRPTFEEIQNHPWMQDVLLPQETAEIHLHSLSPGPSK
Sequence of ERK2 (P28482 whole entry, species assumed): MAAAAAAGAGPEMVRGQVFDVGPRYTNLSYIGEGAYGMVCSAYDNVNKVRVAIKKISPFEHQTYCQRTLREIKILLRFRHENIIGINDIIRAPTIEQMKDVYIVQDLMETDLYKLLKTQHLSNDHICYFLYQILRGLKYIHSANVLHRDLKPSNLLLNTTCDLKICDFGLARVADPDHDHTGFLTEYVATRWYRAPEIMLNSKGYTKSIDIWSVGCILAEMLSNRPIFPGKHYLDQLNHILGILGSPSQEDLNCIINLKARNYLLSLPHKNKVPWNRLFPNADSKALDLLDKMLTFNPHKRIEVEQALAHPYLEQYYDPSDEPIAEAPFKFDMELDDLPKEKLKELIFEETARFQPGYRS
Sequence of KDR (P35968 20-1356, species assumed): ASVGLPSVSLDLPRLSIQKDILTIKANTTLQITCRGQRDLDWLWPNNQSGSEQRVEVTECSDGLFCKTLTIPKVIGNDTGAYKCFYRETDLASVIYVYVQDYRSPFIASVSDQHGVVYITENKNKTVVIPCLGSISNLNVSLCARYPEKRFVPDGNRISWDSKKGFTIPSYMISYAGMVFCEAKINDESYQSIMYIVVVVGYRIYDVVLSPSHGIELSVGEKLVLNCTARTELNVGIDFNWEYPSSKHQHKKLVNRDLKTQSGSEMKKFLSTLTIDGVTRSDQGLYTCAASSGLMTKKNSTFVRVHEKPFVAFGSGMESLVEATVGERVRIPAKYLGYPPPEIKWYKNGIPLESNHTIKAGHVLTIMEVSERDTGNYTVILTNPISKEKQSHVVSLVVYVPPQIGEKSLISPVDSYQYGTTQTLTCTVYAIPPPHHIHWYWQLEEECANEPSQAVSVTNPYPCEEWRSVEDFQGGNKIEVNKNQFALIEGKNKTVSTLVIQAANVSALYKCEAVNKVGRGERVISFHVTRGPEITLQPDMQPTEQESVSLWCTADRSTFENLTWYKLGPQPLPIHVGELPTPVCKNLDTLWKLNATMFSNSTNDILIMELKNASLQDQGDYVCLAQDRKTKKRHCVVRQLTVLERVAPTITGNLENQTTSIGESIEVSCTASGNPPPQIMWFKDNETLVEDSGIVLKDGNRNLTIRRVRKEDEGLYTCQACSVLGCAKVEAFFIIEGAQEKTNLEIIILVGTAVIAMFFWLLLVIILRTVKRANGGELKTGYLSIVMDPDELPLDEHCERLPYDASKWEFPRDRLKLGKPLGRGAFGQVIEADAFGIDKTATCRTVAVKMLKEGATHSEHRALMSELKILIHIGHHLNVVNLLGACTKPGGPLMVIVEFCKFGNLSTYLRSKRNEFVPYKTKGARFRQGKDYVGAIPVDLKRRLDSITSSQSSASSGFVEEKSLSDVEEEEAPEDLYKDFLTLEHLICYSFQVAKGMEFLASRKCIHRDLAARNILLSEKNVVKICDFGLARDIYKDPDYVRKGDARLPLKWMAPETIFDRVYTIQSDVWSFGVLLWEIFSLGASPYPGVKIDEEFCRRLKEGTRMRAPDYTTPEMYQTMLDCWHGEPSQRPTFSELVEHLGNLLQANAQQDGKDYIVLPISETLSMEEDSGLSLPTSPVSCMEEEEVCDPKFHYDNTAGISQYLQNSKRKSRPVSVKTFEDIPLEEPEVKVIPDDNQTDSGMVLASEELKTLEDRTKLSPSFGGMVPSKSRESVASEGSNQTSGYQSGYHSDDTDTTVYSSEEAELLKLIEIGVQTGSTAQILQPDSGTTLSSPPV
Sequence of JNK3 (P53779 whole entry, species assumed): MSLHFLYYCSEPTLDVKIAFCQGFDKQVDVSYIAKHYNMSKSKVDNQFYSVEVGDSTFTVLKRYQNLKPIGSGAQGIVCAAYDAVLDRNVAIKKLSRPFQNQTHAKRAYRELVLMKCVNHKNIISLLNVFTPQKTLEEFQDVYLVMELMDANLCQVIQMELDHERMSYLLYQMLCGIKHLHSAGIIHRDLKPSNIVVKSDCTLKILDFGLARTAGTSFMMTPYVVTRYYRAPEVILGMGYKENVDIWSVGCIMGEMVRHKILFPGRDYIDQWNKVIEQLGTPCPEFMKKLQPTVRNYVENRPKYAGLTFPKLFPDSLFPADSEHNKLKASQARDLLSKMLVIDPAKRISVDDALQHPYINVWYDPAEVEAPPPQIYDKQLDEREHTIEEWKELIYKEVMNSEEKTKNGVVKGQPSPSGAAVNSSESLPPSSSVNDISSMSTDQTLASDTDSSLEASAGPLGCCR

The Ki is the equilibrium dissociation constant of an inhibitor or competing ligand from its target. With `OC[C@@H]1CCCN1Cc1onc(-c2ccc(F)cc2)c1-c1ccnc(NC2CCCCC2)n1` [V-05-014], the Ki on KDR, at ZAP70, at AKT3, on PIM1, on CDK2 and on MAPKAP2 was more than 1000 nM throughout. Also, the Ki is 10 nM on JNK3; more than 1000 nM at ERK2; more than 1000 nM at cMET; more than 1000 nM on PLK1; more than 1000 nM on MKK7; more than 1000 nM on SRC. Also, the Ki on p38 was 15 nM; on AurA it was more than 1000 nM; at JNK2, 15 nM.
By IC50 is commonly meant the point on the concentration scale where inhibition reaches its midpoint. Take `Fc1ccc(-c2noc(CN3CCCCC3)c2-c2ccnc(NC3CCCCC3)n2)cc1` [V-05-015]: the Ki at KDR, at ZAP70, at AKT3, on PIM1, at CDK2 and at MAPKAP2 was more than 1000 nM in each case. The Ki on JNK3 is 8 nM; at ERK2, more than 1000 nM; at cMET it was more than 1000 nM; on PLK1, more than 1000 nM; on MKK7, more than 1000 nM; on SRC it was more than 1000 nM. Moreover, the Ki on AurA is more than 1000 nM; at JNK2 it was 4 nM. Besides, the IC50 on p38 (read-out: IC50 p38 (footnote: this one value is an IC50, not a Ki)) was 8 nM.
On to `OC1CCN(Cc2onc(-c3ccc(F)cc3)c2-c2ccnc(NC3CCCCC3)n2)CC1` [V-05-013], for which the Ki on KDR, at ZAP70, at AKT3, on PIM1, at CDK2 and at MAPKAP2 was more than 1000 nM each time. For the same compound, the Ki on JNK3 is 5 nM; on ERK2 it was more than 1000 nM; on cMET, more than 1000 nM; at PLK1, more than 1000 nM; on MKK7, more than 1000 nM; on SRC, more than 1000 nM. The results for the Ki on p38, on AurA and at JNK2 were 13 nM, more than 1000 nM and 10 nM, respectively.
